# Measured values from patent US11541029B2, “High penetration compositions and their applications” (Techfields Pharma Co., Ltd., priority 2008, dated 2023).
# Experiments:
# [1] = tested on: SLAC:NOD-IDDM, type 1 diabetes; assay: Anti-diabetes (type I) activity of HPCs of NSAIAs; type: in vivo, mice
# Outline: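 Prodrugs given transdermally to the shaved back (about 1.5 cm^2) twice daily at 8 am and 5 pm for 7 weeks, dosed as equal to 20 mg/kg of NSAIA. Non-fasting blood glucose was measured every 3 days at 4:30 pm from week 4 to week 7.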
# [2] = Distribution in organs of rats killed with CO2 (absence of general circulation); settings: 5 hrs after 0.3 mmol/kg diethylaminoethyl acetylsalicylate HCl salt on back of killed rats;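 also: tissue concentration in nmol/g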
# Description: 0.3 mmol/kg of diethylaminoethyl acetylsalicylate HCl salt (10% in pure water) was applied to the back of rats (10 cm^2) which were killed with CO2. The rats were shaken for 5 hrs, then the HPCs and parent drugs in organs of rats were determined.
# normal SD rats (SLAC/SD) = assay: Blood glucose in normal SD rats treated with HPCs of NSAIAs; type: in vivo; settings: 30 mg/kg transdermally once per day, no fasting
# Outline: (§1)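 GK (type 2 diabetic) and normal SD rats, 14-16 weeks old, n=7, received 30 mg/kg test compound in 25% ethanol transdermally on a 6 cm^2 shaved back area once daily at 8 am for 6 weeks. Non-fasting blood glucose was measured at 4:30 pm every 3 days from week 3 to week 6.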
# SLAC/DB/DB obese mice = assay: Blood glucose and blood lipid levels in DB/DB mice; type: in vivo; settings: 30 mg/kg transdermally once per day
# Outline: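 SLAC/DB/DB mice aged 10-12 weeks, n=7, dosed transdermally at 30 mg/kg in 25% ethanol onto a shaved 4 cm^2 back area once daily at 8 am for 5 weeks. Blood glucose measured weekly; blood lipids every other week.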
# [3] = tested on: Human breast cancer cells (BCAP-37); assay: Human breast cancer xenograft in nude mice
# Outline: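 BCAP-37 tumour tissue (2-3 mm^3 per mouse) implanted subcutaneously in BALB nude mice, 12 groups of 7. Test salts given as 50 μl of 5% aqueous solution (2.5 mg compound per dose).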
# [4] = tested on: GK rats (SLAC/GK, type 2 diabetes); assay: Anti-diabetes (type II) activity of HPCs of NSAIAs in GK rats; type: in vivo; settings: 30 mg/kg transdermally once per day, no fasting
# Outline: as §1
# [5] = tested on: Human colon cancer cells (LS174J); assay: Human colon cancer xenograft in nude mice
# Description: Human colon cancer cells (LS174J, 2-3 mm^3 of tumor tissue was used in each mouse) were subcutaneously xenografted into nude mice (BALB).
smiles,measurement,setting,value
"CCN(CC)CCOC(=O)c1ccccc1OC(C)=O.Cl [P-1, diethylaminoethyl acetylsalicylate.HCl salt]","blood glucose, Baseline",[1]; equal to 20 mg/kg of NSAIAs transdermally twice per day for 7 weeks,18.1 ± 4.5 mmol/L
same,"blood glucose, Average","[1]; fourth week to seventh week, no fasting, equal to 20 mg/kg of NSAIAs transdermally twice per day",7.5 ± 1.8 mmol/L
same,concentration in Leg muscle,[2],5.2 ± 3.2 nmol/g
same,concentration in kidney,[2],3.1 ± 1.4 nmol/g
same,concentration in liver,[2],1.2 ± 1.1 nmol/g
same,concentration in pancreas,[2],2.7 ± 1.3 nmol/g
same,concentration in stomach,[2],4.3 ± 1.1 nmol/g
same,"blood glucose, Average (Week 2-5)",normal SD rats (SLAC/SD),5.7 ± 1.3 mmol/L
same,"blood glucose, Day 1",normal SD rats (SLAC/SD),5.8 ± 1.5 mmol/L
same,"Cholesterol (total), Day 1",SLAC/DB/DB obese mice,7.1 ± 0.4 mmol/L
same,"Cholesterol (total), Week 5",SLAC/DB/DB obese mice,4.1 ± 0.4 mmol/L
same,"Triglycerides, Day 1",SLAC/DB/DB obese mice,4.1 ± 0.5 mmol/L
same,"Triglycerides, Week 5",SLAC/DB/DB obese mice,1.5 ± 0.3 mmol/L
same,"blood glucose, Day 1",SLAC/DB/DB obese mice,14.1 ± 2.6 mmol/L
same,"blood glucose, Week 5",SLAC/DB/DB obese mice,6.8 ± 2.8 mmol/L
same,tumor Size at day 42,[3]; 50 μl of 5% topically every 8 hours,140 ± 50 mm^3
same,Weight of mice at day 42,[3]; in vivo,24 ± 3
same,"blood glucose, Average (Week 2-5)",[4],6.4 ± 2.4 mmol/L
same,"blood glucose, Day 1",[4],17.1 ± 2.8 mmol/L
same,tumor Size at day 30,[5]; about 50 μl of 5% topically every 12 hours,480 ± 130 mm^3
same,Weight of mice at day 30,[5]; in vivo,23 ± 3
